From patent US20250145585A1, “HETEROCYCLIC INHIBITORS OF IGF-1R FOR TREATMENT OF DISEASE” (HORIZON THERAPEUTICS IRELAND DAC, priority 2023, published 2025) come the findings set out here.

Structures are written as SMILES.

This assay deals with T1, IGF-1R (Homo sapiens, UniProt P08069).
T1 construct: expressed in transfected cells
The assay can be described thus: Example B-2: IGF-1R Assay (PathHunter cell lines, EC80 agonist challenge, chemiluminescent detection). It counts as cell-based. The note with it: PathHunter cells, compound 60 minutes at 37° C., EC80 agonist 3 hours; read-out: IC50, Biological Activity against IGF-1R (Table B2). Put shortly:
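Read-out is PathHunter chemiluminescence, developed for 1 h at room temperature after a 3 h room-temperature EC80 agonist challenge that followed 60 min compound pre-treatment at 37° C (1% vehicle). IC50 comes from % inhibition normalized to EC80 and vehicle controls.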

T1 sequence (P08069 31-1367): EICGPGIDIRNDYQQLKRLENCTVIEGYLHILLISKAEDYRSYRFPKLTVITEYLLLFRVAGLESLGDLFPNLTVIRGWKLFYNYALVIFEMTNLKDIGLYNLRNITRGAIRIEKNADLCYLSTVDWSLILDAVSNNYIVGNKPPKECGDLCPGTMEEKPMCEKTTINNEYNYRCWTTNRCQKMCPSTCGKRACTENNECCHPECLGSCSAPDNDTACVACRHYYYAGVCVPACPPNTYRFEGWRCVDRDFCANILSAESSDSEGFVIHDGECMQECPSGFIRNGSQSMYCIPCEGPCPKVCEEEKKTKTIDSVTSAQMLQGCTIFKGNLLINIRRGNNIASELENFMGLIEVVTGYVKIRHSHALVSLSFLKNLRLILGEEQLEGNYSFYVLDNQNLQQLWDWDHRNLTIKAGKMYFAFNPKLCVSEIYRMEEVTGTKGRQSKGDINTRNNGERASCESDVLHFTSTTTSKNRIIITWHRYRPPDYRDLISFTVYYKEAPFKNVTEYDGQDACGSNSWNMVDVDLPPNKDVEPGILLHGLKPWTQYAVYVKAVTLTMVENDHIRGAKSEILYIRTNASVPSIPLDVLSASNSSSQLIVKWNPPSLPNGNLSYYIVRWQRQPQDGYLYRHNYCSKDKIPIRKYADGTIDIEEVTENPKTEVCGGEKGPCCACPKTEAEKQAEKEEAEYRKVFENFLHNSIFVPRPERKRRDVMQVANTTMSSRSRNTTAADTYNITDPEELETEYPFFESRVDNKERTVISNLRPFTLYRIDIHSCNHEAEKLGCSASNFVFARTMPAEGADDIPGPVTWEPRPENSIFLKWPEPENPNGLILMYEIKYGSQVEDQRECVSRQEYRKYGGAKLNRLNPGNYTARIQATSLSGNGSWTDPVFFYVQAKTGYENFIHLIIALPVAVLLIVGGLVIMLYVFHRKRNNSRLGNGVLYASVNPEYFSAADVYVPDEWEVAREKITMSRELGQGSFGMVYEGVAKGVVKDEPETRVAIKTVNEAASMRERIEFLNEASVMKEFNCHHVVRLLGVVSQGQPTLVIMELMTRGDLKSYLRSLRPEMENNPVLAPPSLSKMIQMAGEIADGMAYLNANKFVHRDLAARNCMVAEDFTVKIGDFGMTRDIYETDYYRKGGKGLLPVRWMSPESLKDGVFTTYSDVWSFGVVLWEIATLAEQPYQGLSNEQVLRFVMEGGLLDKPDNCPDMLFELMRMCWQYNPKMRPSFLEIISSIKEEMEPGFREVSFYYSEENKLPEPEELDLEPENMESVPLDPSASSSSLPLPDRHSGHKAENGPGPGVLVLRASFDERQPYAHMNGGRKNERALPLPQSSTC

As usually defined, the IC50 is the point on the concentration scale where inhibition reaches its midpoint. With `CN(C)CCOc1cc(N2C(=O)N(Cc3ccnc(N[C@H]4[C@@H]5COC[C@@H]54)c3)C(C)(C)C2=O)ccc1OC(F)(F)F` [Compound 282, 1-((2-(((1R,5S,6r)-3-oxabicyclo[3.1.0]hexan-6-yl)amino)pyridin-4-yl)methyl)-3-(3-(2-(dimethylamino)ethoxy)-4-(trifluoromethoxy)phenyl)-5,5-dimethylimidazolidine-2,4-dione], the IC50 was not above 500 nM. As for `CC1(C)C(=O)N(c2ccc(OC(F)(F)F)c(NS(C)(=O)=O)c2)C(=O)N1Cc1ccnc2c1CC(=O)N2` [Compound 283, N-(5-(4,4-dimethyl-2,5-dioxo-3-((2-oxo-2,3-dihydro-1H-pyrrolo[2,3-b]pyridin-4-yl)methyl)imidazolidin-1-yl)-2-(trifluoromethoxy)phenyl) methanesulfonamide], the figure is more than 10000 nM; as for `CN(C)CCOc1cc(N2C(=O)N(Cc3ccnc4c3CC(=O)N4)C(C)(C)C2=O)ccc1OC(F)(F)F` [Compound 284, 3-(3-(2-(dimethylamino)ethoxy)-4-(trifluoromethoxy)phenyl)-5,5-dimethyl-1-((2-oxo-2,3-dihydro-1H-pyrrolo[2,3-b]pyridin-4-yl)methyl)imidazolidine-2,4-dione], 500 to 2000 nM; as for `CC1(C)C(=O)N(c2ccc(OC(F)(F)F)cc2)C(=O)N1Cc1ccnc2c1CC(=O)N2` [Compound 285, 5,5-dimethyl-1-((2-oxo-2,3-dihydro-1H-pyrrolo[2,3-b]pyridin-4-yl)methyl)-3-(4-(trifluoromethoxy)phenyl) imidazolidine-2,4-dione], 500 to 2000 nM. Regarding `CC1(C)C(=O)N(c2ccc(OC(F)(F)F)c(F)c2)C(=O)N1Cc1ccnc2c1CC(=O)N2` [Compound 286, 3-(3-fluoro-4-(trifluoromethoxy)phenyl)-5,5-dimethyl-1-((2-oxo-2,3-dihydro-1H-pyrrolo[2,3-b]pyridin-4-yl)methyl)imidazolidine-2,4-dione], the concentration for half-maximal inhibition (IC50) lay in the range of 2000 to 10000 nM. Turning to `CC1(C)C(=O)N(c2ccc(OC(F)(F)F)c(Cl)c2)C(=O)N1Cc1ccnc2c1CC(=O)N2` [Compound 287, 3-(3-chloro-4-(trifluoromethoxy)phenyl)-5,5-dimethyl-1-((2-oxo-2,3-dihydro-1H-pyrrolo[2,3-b]pyridin-4-yl)methyl)imidazolidine-2,4-dione], the IC50 is 2000 to 10000 nM. Consider `CC1(C)C(=O)N(c2ccc(OC(F)(F)F)c(C#N)c2)C(=O)N1Cc1ccnc2c1CC(=O)N2` [Compound 288, 5-(4,4-dimethyl-2,5-dioxo-3-((2-oxo-2,3-dihydro-1H-pyrrolo[2,3-b]pyridin-4-yl)methyl)imidazolidin-1-yl)-2-(trifluoromethoxy)benzonitrile], for which the half-inhibitory concentration (IC50) is more than 10000 nM. For the molecule `CC1(C)C(=O)N(c2ccc(S(=O)(=O)C(F)(F)F)cc2)C(=O)N1Cc1ccnc(N[C@H]2CCOC2)c1` [Compound 320, (S)-5,5-dimethyl-1-((2-((tetrahydrofuran-3-yl)amino)pyridin-4-yl)methyl)-3-(4-((trifluoromethyl)sulfonyl)phenyl) imidazolidine-2,4-dione], the half-inhibitory concentration (IC50) was not above 500 nM. In the case of `C[C@@H](CC#N)Nc1cc(CN2C(=O)N(c3ccc(S(=O)(=O)C(F)(F)F)cc3)C(=O)C2(C)C)ccn1` [Compound 321, (S)-3-((4-((5,5-dimethyl-2,4-dioxo-3-(4-((trifluoromethyl)sulfonyl)phenyl)imidazolidin-1-yl)methyl)pyridin-2-yl)amino)butanenitrile], the IC50 lay within 500 to 2000 nM.

For `CC1(C)C(=O)N(c2ccc(S(=O)(=O)C(F)(F)F)cc2)C(=O)N1Cc1ccnc(NC2CCN(S(C)(=O)=O)CC2)c1` [Compound 322, 5,5-dimethyl-1-((2-((1-(methylsulfonyl)piperidin-4-yl)amino)pyridin-4-yl)methyl)-3-(4-((trifluoromethyl)sulfonyl)phenyl) imidazolidine-2,4-dione], the 50% inhibitory concentration (IC50) is 500 to 2000 nM. As for `CN1C[C@@H](Nc2cc(CN3C(=O)N(c4ccc(S(=O)(=O)C(F)(F)F)cc4)C(=O)C3(C)C)ccn2)CC1=O` [Compound 323, (S)-5,5-dimethyl-1-((2-((1-methyl-5-oxopyrrolidin-3-yl)amino)pyridin-4-yl)methyl)-3-(4-((trifluoromethyl)sulfonyl)phenyl) imidazolidine-2,4-dione], the half-inhibitory concentration (IC50) was 2000 to 10000 nM. Take `CN1C[C@H](Nc2cc(CN3C(=O)N(c4ccc(S(=O)(=O)C(F)(F)F)cc4)C(=O)C3(C)C)ccn2)CC1=O` [Compound 324, (R)-5,5-dimethyl-1-((2-((1-methyl-5-oxopyrrolidin-3-yl)amino)pyridin-4-yl)methyl)-3-(4-((trifluoromethyl)sulfonyl)phenyl) imidazolidine-2,4-dione]: the IC50 lay within 500 to 2000 nM.

With `CC1(C)C(=O)N(c2ccc(S(=O)(=O)C(F)(F)F)cc2)C(=O)N1Cc1ccnc(NC2CCc3cn[nH]c3C2)c1` (centres unmarked) [Compound 325, 5,5-dimethyl-1-((2-((4,5,6,7-tetrahydro-1H-indazol-6-yl)amino)pyridin-4-yl)methyl)-3-(4-((trifluoromethyl)sulfonyl)phenyl) imidazolidine-2,4-dione], the concentration for half-maximal inhibition (IC50) was not above 500 nM. Consider `CN1CCC(Nc2cc(CN3C(=O)N(c4ccc(S(=O)(=O)C(F)(F)F)cc4)C(=O)C3(C)C)ccn2)CC1=O` (centres unmarked) [Compound 326, 5,5-dimethyl-1-((2-((1-methyl-2-oxopiperidin-4-yl)amino)pyridin-4-yl)methyl)-3-(4-((trifluoromethyl)sulfonyl)phenyl) imidazolidine-2,4-dione], for which the IC50 lay within 2000 to 10000 nM. `CC1(C)C(=O)N(c2ccc(S(=O)(=O)C(F)(F)F)cc2)C(=O)N1Cc1ccnc(NC2CS(=O)(=O)C2)c1` [Compound 327, 1-((2-((1,1-dioxidothietan-3-yl)amino)pyridin-4-yl)methyl)-5,5-dimethyl-3-(4-((trifluoromethyl)sulfonyl)phenyl) imidazolidine-2,4-dione]: the IC50 was in the range of 2000 to 10000 nM. Regarding `CN1CCCC(Nc2cc(CN3C(=O)N(c4ccc(S(=O)(=O)C(F)(F)F)cc4)C(=O)C3(C)C)ccn2)C1=O` (centres unmarked) [Compound 328, 5,5-dimethyl-1-((2-((1-methyl-2-oxopiperidin-3-yl)amino)pyridin-4-yl)methyl)-3-(4-((trifluoromethyl)sulfonyl)phenyl) imidazolidine-2,4-dione], the half-inhibitory concentration (IC50) was more than 10000 nM. `CC1(C)C(=O)N(c2ccc(S(=O)(=O)C(F)(F)F)cc2)C(=O)N1Cc1ccnc(NC2CCN(S(C)(=O)=O)C2)c1` (centres unmarked) [Compound 329, 5,5-dimethyl-1-((2-((1-(methylsulfonyl)pyrrolidin-3-yl)amino)pyridin-4-yl)methyl)-3-(4-((trifluoromethyl)sulfonyl)phenyl) imidazolidine-2,4-dione]: the IC50 was 500 to 2000 nM.

`CN1CC(Nc2cc(CN3C(=O)N(c4ccc(S(=O)(=O)C(F)(F)F)cc4)C(=O)C3(C)C)ccn2)CCC1=O` (centres unmarked) [Compound 330, 5,5-dimethyl-1-((2-((1-methyl-6-oxopiperidin-3-yl)amino)pyridin-4-yl)methyl)-3-(4-((trifluoromethyl)sulfonyl)phenyl) imidazolidine-2,4-dione]: the IC50 lay in the range of 500 to 2000 nM. Consider `C[C@H](CC#N)Nc1cc(CN2C(=O)N(c3ccc(S(=O)(=O)C(F)(F)F)cc3)C(=O)C2(C)C)ccn1` [Compound 331, (R)-3-((4-((5,5-dimethyl-2,4-dioxo-3-(4-((trifluoromethyl)sulfonyl)phenyl)imidazolidin-1-yl)methyl)pyridin-2-yl)amino)butanenitrile], for which the half-maximal inhibitory concentration (IC50) lay in the range of 500 to 2000 nM. Take `CN1CCC(Nc2cc(CN3C(=O)N(c4ccc(S(=O)(=O)C(F)(F)F)cc4)C(=O)C3(C)C)ccn2)C1=O` (centres unmarked) [Compound 332, 5,5-dimethyl-1-((2-((1-methyl-2-oxopyrrolidin-3-yl)amino)pyridin-4-yl)methyl)-3-(4-((trifluoromethyl)sulfonyl)phenyl) imidazolidine-2,4-dione]: the IC50 lay within 2000 to 10000 nM. For the molecule `CC1(C)C(=O)N(c2ccc(S(=O)(=O)C(F)(F)F)cc2)C(=O)N1Cc1ccnc(NC2CCNC(=O)C2)c1` (centres unmarked) [Compound 333, 5,5-dimethyl-1-((2-((2-oxopiperidin-4-yl)amino)pyridin-4-yl)methyl)-3-(4-((trifluoromethyl)sulfonyl)phenyl) imidazolidine-2,4-dione], the half-maximal inhibitory concentration (IC50) is 500 to 2000 nM. As to `CC1(C)C(=O)N(c2ccc(S(=O)(=O)C(F)(F)F)cc2)C(=O)N1Cc1ccnc(N[C@H]2CCOC[C@@H]2F)c1` [Compound 334, 1-((2-(((3R,4S)-3-fluorotetrahydro-2H-pyran-4-yl)amino)pyridin-4-yl)methyl)-5,5-dimethyl-3-(4-((trifluoromethyl)sulfonyl)phenyl) imidazolidine-2,4-dione], the half-inhibitory concentration (IC50) fell in the range of 500 to 2000 nM. Turning to `CC1(C)C(=O)N(c2ccc(S(=O)(=O)C(F)(F)F)cc2)C(=O)N1Cc1ccnc(N[C@@H]2[C@@H]3COC[C@@H]32)c1` [Compound 335, 1-((2-(((1R,5S,6s)-3-oxabicyclo[3.1.0]hexan-6-yl)amino)pyridin-4-yl)methyl)-5,5-dimethyl-3-(4-((trifluoromethyl)sulfonyl)phenyl) imidazolidine-2,4-dione], the IC50 was 500 to 2000 nM.

For the molecule `CC(CF)Nc1cc(CN2C(=O)N(c3ccc(S(=O)(=O)C(F)(F)F)cc3)C(=O)C2(C)C)ccn1` (centres unmarked) [Compound 336, 1-((2-((1-fluoropropan-2-yl)amino)pyridin-4-yl)methyl)-5,5-dimethyl-3-(4-((trifluoromethyl)sulfonyl)phenyl) imidazolidine-2,4-dione], the IC50 lay within 500 to 2000 nM. With `CC1(C)C(=O)N(c2ccc(S(C)(=O)=O)cc2)C(=O)N1Cc1ccnc(N[C@H]2[C@@H]3COC[C@@H]32)c1` [Compound 337, 1-((2-(((1R,SS,6r)-3-oxabicyclo[3.1.0]hexan-6-yl)amino)pyridin-4-yl)methyl)-5,5-dimethyl-3-(4-(methylsulfonyl)phenyl) imidazolidine-2,4-dione], the IC50 was more than 10000 nM. For the molecule `CO[C@H](C)CNc1cc(CN2C(=O)N(c3ccc(S(=O)(=O)C(F)(F)F)cc3)C(=O)C2(C)C)ccn1` [Compound 338, (R)-1-((2-((2-methoxypropyl)amino)pyridin-4-yl)methyl)-5,5-dimethyl-3-(4-((trifluoromethyl)sulfonyl)phenyl) imidazolidine-2,4-dione], the IC50 was not above 500 nM.
